System: streptozotocin (STZ)-induced diabetic rats
Assay: Mechanical thresholds in streptozotocin (STZ)-induced diabetic rats
Format: in vivo, rat
Method: Experiments were conducted to determine the effect of Compound 1 in streptozotocin (STZ)-induced diabetic rats. In the first experiment, after obtaining mechanical threshold baselines, STZ (50 mg/kg IV) was administered (Day −7). Two days later, blood glucose levels were measured and animals that were hyperglycemic (>250 mg/dL) continued in the study. On Day 0 the baseline for mechanical thresholds prior to dosing with test articles was established for the rats. Compound 1 (10, 30, and 100 mg/kg PO), gabapentin (100 mg/kg PO) or vehicle was then administered daily for 5 days. On Day 0 mechanical thresholds were obtained at 1, 3, and 6 h post-dose. On Day 1 mechanical thresholds were measured immediately prior to dosing and then 3 h post-dose. The same regimen was followed on Day 3.
In a subsequent study, the same STZ paradigm was followed. However, in addition to the 100 mg/kg Compound 1 group, two additional cohorts received the Compound 1 100 mg/kg dose split into two or three doses per day with 50 mg/kg BID and 33 mg/kg TID. In addition to the gabapentin (100 mg/kg PO) group, a separate cohort received duloxetine (30 mg/kg PO). Additionally, in this study mechanical threshold testing was implemented every day immediately prior to dosing and 2 h post-dose for 7 days.

[1] = subsequent study, 7 days, Compound 1 100 mg/kg QD, 50 mg/kg BID, 33 mg/kg TID, gabapentin 100 mg/kg PO, duloxetine 30 mg/kg PO

CNCC[C@H](Oc1cccc2ccccc12)c1cccs1 [duloxetine, reference compound]
reversal of allodynia (mechanical threshold) [1]: required successive doses for appreciable activity

NCC1(CC(=O)O)CCCCC1 [gabapentin, reference compound]
reversal of allodynia (mechanical threshold) (first experiment, Compound 1 10, 30, 100 mg/kg PO, gabapentin 100 mg/kg PO daily, Day 0 (gabapentin: 1 h post-dose on Day 0 and all time points thereafter)): significant reversal of allodynia
reversal of allodynia (mechanical threshold) [1]: robustly reversed the allodynia throughout the study

Reference: patent US20200246317A1, “METHODS OF TREATING DIABETIC NEUROPATHY WITH A THIAZOLINE ANTI-HYPERALGESIC AGENT” (CERSCI THERAPEUTICS, INC., priority 2019, published 2020)
